Each structure is given as a SMILES string.

Test [1] deals with T1, Recombinant IKKα (Homo sapiens, UniProt O15111).
T1 construct: purchased Millipore, Dundee, UK
T1 sequence (O15111 1-745): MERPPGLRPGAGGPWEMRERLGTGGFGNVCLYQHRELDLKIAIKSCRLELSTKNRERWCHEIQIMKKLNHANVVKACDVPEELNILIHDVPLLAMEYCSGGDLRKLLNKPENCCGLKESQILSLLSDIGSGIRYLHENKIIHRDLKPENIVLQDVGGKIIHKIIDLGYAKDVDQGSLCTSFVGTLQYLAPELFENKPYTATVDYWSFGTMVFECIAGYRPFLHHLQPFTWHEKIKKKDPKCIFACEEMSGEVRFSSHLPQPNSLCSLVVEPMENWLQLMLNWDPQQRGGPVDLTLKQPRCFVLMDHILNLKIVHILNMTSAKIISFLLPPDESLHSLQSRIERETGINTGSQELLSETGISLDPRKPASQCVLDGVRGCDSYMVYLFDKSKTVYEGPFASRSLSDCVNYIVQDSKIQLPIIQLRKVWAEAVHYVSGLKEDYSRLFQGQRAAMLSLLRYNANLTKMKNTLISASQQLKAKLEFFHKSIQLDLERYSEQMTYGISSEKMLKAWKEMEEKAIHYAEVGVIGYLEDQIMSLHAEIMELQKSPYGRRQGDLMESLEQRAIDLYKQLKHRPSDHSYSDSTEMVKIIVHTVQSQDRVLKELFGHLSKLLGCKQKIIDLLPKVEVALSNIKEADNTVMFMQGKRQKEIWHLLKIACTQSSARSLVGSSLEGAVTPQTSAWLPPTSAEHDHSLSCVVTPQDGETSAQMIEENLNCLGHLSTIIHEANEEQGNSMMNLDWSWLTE
Kind of test: DELFIA IKKα kinase assay (apparent Ki, Cheng-Prusoff). The test is classed as biochemical. Conditions: DELFIA assay (first line of an example). Summed up: (§1)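 Recombinant IKKα or IKKβ (37 nM) with 0.375 μM biotinylated IκB-α (Ser32) peptide and 40 μM ATP in 40 mM Tris-HCl pH 7.5, 20 mM MgCl2, 60 min at 30° C. Phospho-substrate captured on streptavidin and detected by anti-phospho-IκB-α plus europium anti-mouse IgG time-resolved fluorescence; apparent Ki via Cheng-Prusoff.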

Test [2] deals with T2, Recombinant IKKβ (Homo sapiens, UniProt O14920).
T2 construct: purchased Millipore, Dundee, UK
T2 sequence (O14920 1-756): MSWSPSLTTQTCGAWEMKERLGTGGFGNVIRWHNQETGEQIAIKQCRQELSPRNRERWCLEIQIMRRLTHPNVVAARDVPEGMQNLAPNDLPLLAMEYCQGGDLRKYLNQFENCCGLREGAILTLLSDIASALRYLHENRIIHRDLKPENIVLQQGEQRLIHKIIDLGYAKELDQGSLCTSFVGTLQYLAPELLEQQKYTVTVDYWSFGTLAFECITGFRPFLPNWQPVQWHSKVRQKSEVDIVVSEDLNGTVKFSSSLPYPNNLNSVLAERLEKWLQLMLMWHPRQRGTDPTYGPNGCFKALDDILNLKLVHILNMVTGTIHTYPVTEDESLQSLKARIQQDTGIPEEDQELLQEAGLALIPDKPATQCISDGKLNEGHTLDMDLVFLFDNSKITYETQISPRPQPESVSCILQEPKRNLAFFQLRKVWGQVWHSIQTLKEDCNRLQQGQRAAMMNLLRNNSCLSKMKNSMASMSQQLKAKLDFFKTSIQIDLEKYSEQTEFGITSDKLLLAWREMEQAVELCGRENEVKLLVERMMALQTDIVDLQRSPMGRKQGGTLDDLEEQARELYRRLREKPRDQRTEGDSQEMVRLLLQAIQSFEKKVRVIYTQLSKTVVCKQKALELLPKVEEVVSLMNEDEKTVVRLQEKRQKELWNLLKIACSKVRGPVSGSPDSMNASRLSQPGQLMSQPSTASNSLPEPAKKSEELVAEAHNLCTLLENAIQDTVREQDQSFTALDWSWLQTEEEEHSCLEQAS
Kind of test: DELFIA IKKβ kinase assay (apparent Ki, Cheng-Prusoff). The test is classed as biochemical. The conditions noted are these: DELFIA assay (first line of an example). The method, boiled down: as §1

`Nc1n[nH]c2c(-c3ccc(O)cc3)cc(-c3ccnc(NC4COC4)c3)cc12` [Example 324, 4-(3-Amino-5-(2-(oxetan-3-ylamino)pyridin-4-yl)-1H-indazol-7-yl)phenol]: the Ki was 8090 nM in test [1] and 4730 nM in test [2].
The corresponding values for `COC(=O)Nc1cc(-c2cc(-c3ccc(N)cc3)c3[nH]nc(N)c3c2)ccn1` [Example 325, Methyl (4-(3-amino-7-(4-aminophenyl)-1H-indazol-5-yl)pyridin-2-yl)carbamate] are 6 nM and 79 nM.
As to `COC(=O)Nc1cc(-c2cc(-c3ccc(NC(C)=O)cc3)c3[nH]nc(N)c3c2)ccn1` [Example 326, Methyl (4-(7-(4-acetamidophenyl)-3-amino-1H-indazol-5-yl)pyridin-2-yl)carbamate], the Ki was found to be 14 nM in test [1] and 87 nM in test [2].
In the case of `COC(=O)Nc1cc(-c2cc(-c3ccc(C(N)=O)cc3)c3[nH]nc(N)c3c2)ccn1` [Example 327, Methyl (4-(3-amino-7-(4-carbamoylphenyl)-1H-indazol-5-yl)pyridin-2-yl)carbamate], the Ki in test [1] came out at 614 nM; in test [2], 3790 nM.
In the case of `COC(=O)Nc1cc(-c2cc(-c3ccc(CN4CCOCC4)cc3)c3[nH]nc(N)c3c2)ccn1` [Example 328, Methyl (4-(3-amino-7-(4-(morpholinomethyl)phenyl)-1H-indazol-5-yl)pyridin-2-yl)carbamate], the Ki worked out at 24 nM in test [1] and 407 nM in test [2].
In the case of `Nc1cc(-c2cc(-c3ccc(CCN4CCOCC4)cc3)c3[nH]nc(N)c3c2)ccn1` [Example 329, 5-(2-Aminopyridin-4-yl)-7-(4-(2-morpholinoethyl)phenyl)-1H-indazol-3-amine], the Ki in test [1] is 14 nM; in test [2], 108 nM.
For `COC(=O)Nc1cc(-c2cc(-c3ccc(CCN4CCOCC4)cc3)c3[nH]nc(N)c3c2)ccn1` [Example 330, Methyl (4-(3-amino-7-(4-(2-morpholinoethyl)phenyl)-1H-indazol-5-yl)pyridin-2-yl)carbamate] the same measures were greater than 10000 nM and greater than 10000 nM.
As for `COC(=O)Nc1cc(-c2cc(-c3cccc(CN4CCOCC4)c3)c3[nH]nc(N)c3c2)ccn1` [Example 334, Methyl (4-(3-amino-7-(3-(morpholinomethyl)phenyl)-1H-indazol-5-yl)pyridin-2-yl)carbamate], the Ki amounted to 38 nM in test [1] and 429 nM in test [2].
The corresponding values for `Nc1n[nH]c2ccc(-c3ccnc(NC(=O)CC4CCCCC4)c3)cc12` [Example 335, N-(4-(3-Amino-1H-indazol-5-yl)pyridin-2-yl)-2-cyclohexylacetamide] are 340 nM and 4200 nM.
For `CC(C)(C)C#Cc1cc(-c2cc(N)ncc2C#N)cc2c(N)n[nH]c12` [Example 336, 6-Amino-4-(3-amino-7-(3,3-dimethylbut-1-yn-1-yl)-1H-indazol-5-yl)nicotinonitrile], the Ki in test [1] and in test [2] was greater than 10000 nM each time.

The values are drawn from patent US20250304576A1 (Cancer Research Technology Limited, priority 2022, published 2025).
